According to patent US8889678B2, “Acyl guanidine derivatives modulating the hedgehog protein signaling pathway” (Centre National de la Recherche Scientifique, priority 2009, dated 2014):
Like-named read-outs stand apart in the source and are kept apart here. Values belong to the compound of their own block, whether it stands above or below them.

Tests used:
[1] = test system: Hedgehog protein signaling pathway; assay: Inhibition of SAG-induced alkaline phosphatase activity (differentiation) in C3H10T1/2 cells; format: cell-based; conditions: read-out: IC50 (concentration which inhibits 50% of the alkaline phosphatase activity)
Method: The compounds of formula (I) to be tested were dissolved in dimethyl sulfoxide until a concentration of 10 mM was obtained, and then stored at a temperature of −20° C. until use.
The pluripotent fibroblast cell line C3H10T1/2 was cultured under the conditions recommended by the American Type Culture Collection (ATCC).
Activation with SAG causes the cell line to differentiate and allows the cells to express alkaline phosphatase. It was thus possible to measure the activity of the Hedgehog protein signaling pathway by measuring the alkaline phosphatase activity.
The C3H10T1/2 cells were seeded onto 96-well plates at a density of 5×10^3 cells per well, 24 hours before the addition of the test compounds at a concentration ranging from 1 nM to 30 μM and in the presence of 0.1 μM of SAG, using DMEM (Dulbecco's Modified Eagle's Medium) with 10% fetal calf serum, as culture medium. The tests were carried out in quadruplicate. The plates were then incubated for 5 to 6 days at a temperature of 37° C. under an atmosphere of 5% CO2. The cells were then washed in a cold phosphate buffer (Phosphate Buffered Saline: PBS), and then lysed by sonication at 4° C. in 50 μL of solution containing 0.9% of NaCl and 0.2% of Triton X-100.

[2] = molecular target: T1, mouse Smoothened receptor (Mus musculus, UniProt P56726); assay: Competition with bodipycyclopamine binding on HEK293 cells transfected with mouse Smoothened; conditions: 5 nM bodipycyclopamine, 2 hours at 37° C., read-out: IC50 (concentration which inhibits 50% of the bodipycyclopamine binding)
T1 construct: expressed in transfected cells; host or cells: HEK293 cells, transiently transfected with Fugene6
Method: HEK293 cells are seeded at 70 000 cells per well onto glass cover slips treated with poly-D-lysine in a 24-well plate, and transfected the following day with 0.25 μg of plasmid encoding the mouse Smoothened protein using 0.7 μl of Fugene6 (Roche biochemicals) according to the protocol described by the supplier (i.e. 0.7 μl of Fugene 6 are added to 24 μl of DMEM without any additive, in each well. The mixture is then incubated for 5 minutes at ambient temperature, 0.25 μg of plasmid DNA are added, and then the whole is mixed and incubated for 20 to 30 minutes at ambient temperature. 25 μl of the mixture thus prepared are then added directly to the cell culture medium, in each well of the plate containing 24 wells). After 48 hours, the culture medium is removed, and the cells are rinsed once with 1 ml of a PBS (Phosphate Buffered Saline) phosphate buffer solution, and then fixed for 20 minutes in the presence of an ice-cold solution of paraformaldehyde (PFA) at 4%, and 0.12 M glucose in a PBS phosphate buffer solution. The cells are then rinsed once and washed twice for 5 minutes with 1 ml of a PBS phosphate buffer solution containing 0.5% of fetal calf serum (PBS-FCS). […] The cells are then washed twice for 5 minutes with 1 ml of PBS-FCS, then brought into contact with 1 ml of a 1×PBS phosphate buffer solution. Finally, the cover slips are mounted on a glass slide in the presence of Vectashield containing DAPI (4′,6′-diamidino-2-phenylindole) so as to label the cell nuclei (Vector). […] The fluorescence intensity is then analyzed using the Simple PCI 6.2 software (Hamamatsu Corporation), and then related to the surface area of the nuclei present on the photograph.

Shh pathway = assay: In vivo inhibition of Shh-induced Patched mRNA in the subventricular zone of adult mouse brain (in situ hybridization); conditions: adult mice, 4.5 pmol injected with recombinant Shh protein (290 ng) into the lateral ventricle, in situ hybridization 48 hours after injection
Method: Adult male Swiss mice (8 weeks old, 35 g) were anesthetized with a mixture of ketamine (Mérial®, Lyon, France) (0.1 mg/g) and xylazine (Bayer®, Puteaux, France) (0.01 mg/g) by intraperitoneal (i. p.) injection. The recombinant Shh protein (290 ng in a buffer solution containing 150 mM of sodium chloride NaCl and 0.5 mM of dithitheritol DTT), was diluted in 4.5 μl of a solution of 2-hydroxypropyl-beta-cyclodextrin (HBC) at 45% in PBS optionally containing 4.5 pmol of Cur61414 or of compound 24. This mixture was injected stereotaxically into the right lateral ventricle (LV) (n=5 animals for each group), at the following coordinates given relative to the Bregma axis: anteroposterior+0.2 mm; lateral+0.8 mm; dorsoventral−2.5 mm. The reference atlas for the stereotaxic coordinates is: The mouse brain in stereotaxic coordinates, Georges Paxinos, Keith B. J., Franklin, 2nd edition, 2001, Academic Press (San Diego, United States).
The detection of the Patched messenger RNA by in situ hybridization was carried out 48 hours after the injection, as described by Traiffort et al., Eur. J. Neursci, 1999, 11, 3199-3214.

cells = conditions: Borzillo et al., Curr. Top Med. Chem., 2005; cited from earlier work
[3] = Mus musculus, C3H 10T1/2, after induction with 0.1 μM SAG

T1 sequence (P56726 33-793): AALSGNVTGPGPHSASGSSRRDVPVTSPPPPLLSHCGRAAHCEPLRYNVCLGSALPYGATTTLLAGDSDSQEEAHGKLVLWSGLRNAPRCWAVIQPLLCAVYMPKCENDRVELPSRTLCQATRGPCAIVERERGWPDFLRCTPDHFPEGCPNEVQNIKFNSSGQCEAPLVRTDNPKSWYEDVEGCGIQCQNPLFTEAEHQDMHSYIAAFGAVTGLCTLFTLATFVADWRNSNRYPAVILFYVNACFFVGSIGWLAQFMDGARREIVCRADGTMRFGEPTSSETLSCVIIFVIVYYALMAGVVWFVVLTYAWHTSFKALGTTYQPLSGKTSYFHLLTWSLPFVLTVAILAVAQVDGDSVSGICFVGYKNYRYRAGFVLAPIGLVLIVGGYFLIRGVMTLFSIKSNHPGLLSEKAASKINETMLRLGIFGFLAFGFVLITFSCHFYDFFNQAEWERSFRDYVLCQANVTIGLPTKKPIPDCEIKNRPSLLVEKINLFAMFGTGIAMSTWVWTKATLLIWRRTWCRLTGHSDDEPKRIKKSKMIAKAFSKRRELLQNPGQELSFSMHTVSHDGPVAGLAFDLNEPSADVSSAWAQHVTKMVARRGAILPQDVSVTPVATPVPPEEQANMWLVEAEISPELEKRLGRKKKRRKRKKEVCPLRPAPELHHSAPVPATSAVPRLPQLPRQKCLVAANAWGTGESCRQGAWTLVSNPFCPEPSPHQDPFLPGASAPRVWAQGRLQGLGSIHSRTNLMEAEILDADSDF

Compound: COc1cc(C(=O)NC(=N)Nc2cccc(NC(=O)c3ccccc3)c2)cc(OC)c1OC [Compound 15, N—(N-(3-benzamidophenyl)carbamimidoyl)-3,4,5-trimethoxybenzamide]
IC50 [1, 3]: 300 to 1000 nM

Compound: COc1cc(C(=O)NC(=N)Nc2ccc(Cl)c(NC(=O)c3ccccc3)c2)cc(OC)c1OC [Compound 16, N—(N-(3-benzamido-4-chlorophenyl)carbamimidoyl)-3,4,5-trimethoxybenzamide]
IC50 [1, 3]: 300 to 1000 nM

Compound: COc1cc(C(=O)NC(=N)Nc2ccc(Cl)c(NC(=O)c3ccc(-c4ccccc4)cc3)c2)cc(OC)c1OC [Compound 17, N-(2-chloro-5-(3-(3,4,5-trimethoxybenzoyl)guanidino)phenyl)-biphenyl-4-carboxamide]
IC50 [1, 3]: 30 to 300 nM

Compound: COc1cc(C(=O)NC(=N)Nc2cccc(NC(=O)c3ccc(N4CCOCC4)cc3)c2)cc(OC)c1OC [Compound 18, 3,4,5-trimethoxy-N—(N-(3-(4-morpholinobenzamido)phenyl)-carbamimidoyl)benzamide]
IC50 [1, 3]: 30 to 300 nM

Compound: COc1cc(C(=O)NC(=N)Nc2cccc(-c3cc4ccccc4[nH]3)c2)cc(OC)c1OC [Compound 19, N—(N-(3-(1H-indol-2-yl)phenyl)carbamimidoyl)-3,4,5-trimethoxybenzamide]
IC50 [1, 3]: 30 to 300 nM | melting point: 149 °C

Compound: COc1ccc(NC(=O)c2cc(NC(=N)NC(=O)c3cc(OC)c(OC)c(OC)c3)ccc2Cl)cc1 [Compound 20, N—(N-(4-chloro-3-(4-methoxyphenylcarbamoyl)phenyl)-carbamimidoyl)-3,4,5-trimethoxybenzamide]
IC50 [1, 3]: 300 to 1000 nM | melting point: 105 °C

Compound: cyclopamine [reference compound]
IC50 ([1]; after induction with 0.1 μM SAG): 300 to 1000 nM | concentrations cytotoxic for cells (cells): above 10 μM

Second part, led by results:

IC50 [1, 3]: 300 to 1000 nM
Compound: COc1cc(C(=O)NC(=N)Nc2ccc(Cl)c(C(=O)Nc3ccccc3)c2)cc(OC)c1OC [Compound 21, N—(N-(4-chloro-3-(phenylcarbamoyl)phenyl)carbamimidoyl)-3,4,5-trimethoxybenzamide]

IC50 [1, 3]: 30 to 300 nM
Compound: COc1cc(C(=O)NC(=N)Nc2ccc(C)c(C(=O)Nc3ccccc3)c2)cc(OC)c1OC [Compound 22, 3,4,5-trimethoxy-N—(N-(4-methyl-3-(phenylcarbamoyl)phenyl)-carbamimidoyl)benzamide]

IC50 [1, 3]: 3 to 30 nM | IC50 [2]: 3 to 30 nM
Compound: COc1cc(C(=O)NC(=N)Nc2cccc(NC(=O)c3ccc(-c4ccc(F)cc4)cc3)c2)cc(OC)c1OC [Compound 23, 4′-fluoro-N-(3-(3-(3,4,5-trimethoxybenzoyl)guanidino)phenyl)-biphenyl-4-carboxamide]

IC50 [1, 3]: 3 to 30 nM | IC50 [2]: 3 to 30 nM
Compound: COc1cc(C(=O)NC(=N)Nc2ccc(C)c(NC(=O)c3ccc(-c4ccccc4)cc3)c2)cc(OC)c1OC [Compound 24, N-(2-methyl-5-(3-(3,4,5-trimethoxybenzoyl)guanidino)phenyl)-biphenyl-4-carboxamide]
Induction of the Ptc gene messenger RNA in the subventricular zone (Shh pathway): disappears

IC50 [1, 3]: 300 to 1000 nM
Compound: COc1cc(C(=O)NC(=N)Nc2cccc(-c3cn4ccsc4n3)c2)cc(OC)c1OC [Compound 28]

IC50 [1, 3]: 300 to 1000 nM
Compound: COc1cc(C(=O)NC(=N)Nc2cccc(-n3ccc4ccccc43)c2)cc(OC)c1OC [Compound 29, N—(N-(3-(1H-indol-1-yl)phenyl)carbamimidoyl)-3,4,5-trimethoxybenzamide]

IC50 [1, 3]: 3 to 30 nM
Compound: COc1cc(C(=O)NC(=N)Nc2ccc(C)c(NC(=O)c3ccc(-c4ccc(F)cc4)cc3)c2)cc(OC)c1OC [Compound 30, 4′-fluoro-N-(2-methyl-5-(3-(3,4,5-trimethoxybenzoyl)-guanidino)phenyl)biphenyl-4-carboxamide]

melting point: 127 °C
Compound: COc1cc(C(=O)NC(=N)Nc2ccc(Cl)c(NC(=O)Nc3ccccc3)c2)cc(OC)c1OC [Compound 38, N—(N-(4-chloro-3-(3-phenylureido)phenyl)carbamimidoyl)-3,4,5-trimethoxybenzamide]

IC50 [1, 3]: 300 to 1000 nM | IC50 [2]: 30 to 300 nM
Compound: COc1cccc(CN(C(=O)CC(C)(C)C)C2CC(C(=O)N3CCNCC3)N(Cc3ccc4c(c3)OCO4)C2)c1 (stereo not shown) [Cur61414, reference compound]
Induction of the Ptc gene messenger RNA in the subventricular zone (Shh pathway): disappears

IC50 [1, 3]: 3 to 30 nM
Compound: CS(=O)(=O)c1ccc(C(=O)Nc2ccc(Cl)c(-c3ccccn3)c2)c(Cl)c1 [GDC-0449, reference compound]
